Where two headings read alike, the source gives them in different places.

One assay addresses SPM-1 (Pseudomonas aeruginosa, UniProt Q8G9Q0). As to the kind of experiment: SPM-1 inhibition, fluorogenic cephalosporin (FC5) hydrolysis. The class given is biochemical. The following applies: for IC50: enethiols 6 assayed as sodium salts, 10 min incubation, read-out: IC50 SPM-1 (converted); for remaining activity at 100 µM: read-out: % Residual activity versus SPM-1. Here is the method:
(§1) Inhibition analyses against bacterial MBLs and SBLs were performed as described previously.[22], [24], [26] Residual enzyme activities were determined for a range of inhibitor concentrations. Non-linear regression fitting of IC50 curves was carried out using a three-parameter dose–response curve in GraphPad Prism. Errors in IC50 values are expressed as: σ(logIC50)/logIC50×IC50
(§2) We first screened the inhibitors against a representative set of presently clinically important and other MBLs[22], comprising both Class B1 enzymes (NDM-1, New Delhi MBL-1; VIM-2, Verona integron–encoded MBL-2; BcII, Bacillus cereus II MBL; SPM-1, São Paulo MBL-1; IMP-1, imipenemase MBL-1) and the Class B2 MBL CphA (carbapenem hydrolysing MBL from Aeromonas hydrophila).[22] The latter MBL (CphA) only utilises one active site Zn(II) ion in catalysis, whilst the others normally use two Zn(II) ions.
Figure S5: IC50 curves for SPM-1 inhibition time courses. Residual activities were calculated from the
(§3) initial rate of FC5 hydrolysis after incubation of the enzyme with the inhibitor for 10 minutes. […]

In a further assay the target is T1, NDM-1 (Klebsiella pneumoniae, UniProt C7C422).
T1 construct: made in house
T1 sequence (C7C422 29-270, looked up, species assumed): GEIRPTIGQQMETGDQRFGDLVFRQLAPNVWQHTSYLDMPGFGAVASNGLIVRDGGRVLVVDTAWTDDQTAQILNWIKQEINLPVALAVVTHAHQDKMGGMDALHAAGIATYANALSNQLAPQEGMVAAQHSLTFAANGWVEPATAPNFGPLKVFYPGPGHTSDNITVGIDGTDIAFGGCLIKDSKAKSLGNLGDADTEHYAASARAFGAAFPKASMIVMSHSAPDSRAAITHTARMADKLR
Kind of assay: NDM-1 inhibition, fluorogenic cephalosporin (FC5) hydrolysis. The format is biochemical. The conditions noted are these: for IC50: enethiols 6 assayed as sodium salts, 10 min incubation, read-out: IC50 NDM-1; for remaining activity at 100 µM: read-out: % Residual activity versus NDM-1. Here is the method:
as §1, §2
Figure S4: IC50 curves for NDM-1 inhibition time courses. Residual activities were calculated from the
as §3

Assay [1] deals with MBLs (SPM-1, IMP-1, BcII, VIM-2, NDM-1). The class given is biochemical. The following applies: for MBL inhibition, result in words: at 100 µM. The protocol:
as §1
as §2, with “ions. We also screened the inhibitors against a representative panel of SBLs from different classes (TEM-1, Temoneira β-lactamase-1, class A; CTX-M-15, cefotaxime hydrolysing β-lactamase from Munich 15, class A, extended spectrum β-lactamase (ESBL); AmpC E. coli, class C, and OXA-10, oxacillinase-10, class D).” for “ions.”

In the next assay the target is T2, VIM-2 (Escherichia coli, UniProt Q5U7L7).
T2 construct: made in house
Kind of assay: biochemical. The conditions noted are these: for IC50: enethiols 6 assayed as sodium salts, 10 min incubation, read-out: IC50 VIM-2 (converted); for remaining activity at 100 µM: read-out: % Residual activity versus VIM-2. Here is the method:
as §1
as §2, with “ions. We also screened the inhibitors against a representative panel of SBLs from different classes (TEM-1, Temoneira β-lactamase-1, class A; CTX-M-15, cefotaxime hydrolysing β-lactamase from Munich 15, class A, extended spectrum β-lactamase (ESBL); AmpC E. coli, class C, and OXA-10, oxacillinase-10, class D).” for “ions.”
Figure S6: IC50 curves for VIM-2 inhibition time courses. Residual activities were calculated from the
as §3

Another assay has as its target T3, IMP-1 (Serratia marcescens, UniProt P52699).
T3 construct: made in house
Kind of assay: IMP-1 inhibition, fluorogenic cephalosporin (FC5) hydrolysis. The format is biochemical. The following applies: for IC50: enethiols 6 assayed as sodium salts, 10 min incubation, read-out: IC50 IMP-1 (converted); for remaining activity at 100 µM: read-out: % Residual activity versus IMP-1. Here is the method: as §1, §2
Figure S3: IC50 curves for IMP-1 inhibition time courses. Residual activities were calculated from the
initial rate of FC5 hydrolysis after incubation of the enzyme with the inhibitor for 10 minutes.

Another assay has as its target T4, BcII (Bacillus cereus, UniProt P04190).
T4 construct: made in house
Kind of assay: biochemical. The conditions noted are these: for IC50: enethiols 6 assayed as sodium salts, 10 min incubation, read-out: IC50 BcII (converted); for remaining activity at 100 µM: read-out: % Residual activity versus BcII. The protocol:
as §1, §2
Figure S2: IC50 curves for BcII inhibition time courses. Residual activities were calculated from the initial
rate of FC5 hydrolysis after incubation of the enzyme with the inhibitor for 10 minutes. […]

Where [2] appears, read: lower end of the range, read-out: IC50 values from (lowest across the MBL panel).

T4 sequence (P04190 31-257): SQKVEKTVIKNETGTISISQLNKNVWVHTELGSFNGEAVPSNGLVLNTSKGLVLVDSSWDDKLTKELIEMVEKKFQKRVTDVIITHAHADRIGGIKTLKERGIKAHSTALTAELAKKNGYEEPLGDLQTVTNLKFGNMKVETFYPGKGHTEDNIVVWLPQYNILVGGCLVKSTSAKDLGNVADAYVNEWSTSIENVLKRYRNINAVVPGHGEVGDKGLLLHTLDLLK
Chain of SPM-1 (Q8G9Q0 entry or part of it): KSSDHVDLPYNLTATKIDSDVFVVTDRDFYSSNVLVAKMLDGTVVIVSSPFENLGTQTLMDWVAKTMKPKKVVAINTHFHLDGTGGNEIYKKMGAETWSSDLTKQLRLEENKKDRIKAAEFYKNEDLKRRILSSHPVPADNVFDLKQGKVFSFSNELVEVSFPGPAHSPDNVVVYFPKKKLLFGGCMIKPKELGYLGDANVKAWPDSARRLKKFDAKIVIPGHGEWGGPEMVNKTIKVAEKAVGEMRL
T3 sequence (P52699 19-246, looked up, species assumed): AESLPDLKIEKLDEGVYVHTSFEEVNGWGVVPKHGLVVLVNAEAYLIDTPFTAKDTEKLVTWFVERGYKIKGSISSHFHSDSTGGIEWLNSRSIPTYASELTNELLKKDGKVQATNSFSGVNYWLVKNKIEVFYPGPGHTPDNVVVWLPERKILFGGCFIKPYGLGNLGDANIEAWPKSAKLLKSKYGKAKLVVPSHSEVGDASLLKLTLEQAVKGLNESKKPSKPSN

For the compound `CN1CCN(NC(=O)CN2C(=O)/C(=C/c3c(F)ccc(F)c3F)SC2=S)CC1` [Compound 5k], the IC50 (commonly the midpoint of a concentration-inhibition curve) at SPM-1 was 1.5 µM; on NDM-1, 40.1 µM; in assay [1] (SPM-1, IMP-1, BcII, VIM-2, read-out: IC50 values for all the tested B1 subclass MBLs, with the exception of NDM-1), less than 3.5 µM; at VIM-2 it was 2.6 µM; on IMP-1 it was 1.6 µM; at BcII, 3.5 µM.
For the compound `O=C(O)/C(S)=C/c1cccc(Cl)c1Cl` [Compound 6n], the IC50 at SPM-1 is 0.2 µM; at NDM-1, 46.5 µM; in assay [1] (setting [2]), 0.2 µM; at VIM-2, 1.3 µM; at IMP-1 it was 1 µM; on BcII it was 1 µM.
For the compound `O=P(O)(O)C(S)c1ccc(Br)cc1F` (centres unmarked) [Compound 26], the remaining activity at 100 µM at SPM-1 was determined as 95 ± 6%; at NDM-1, 96 ± 3%; at VIM-2, 100%; at IMP-1 it was 100%; at BcII, 100%. The “MBL inhibition, result in words” value in assay [1] is “inactive”.
On to `O=P(O)(O)C(O)c1ccc(Br)cc1F` (centres unmarked) [Compound 22], for which the remaining activity at 100 µM at SPM-1 is 92 ± 5%; at NDM-1, 100%; at VIM-2, 100%; on IMP-1 it was 100%; at BcII, 98 ± 2%. The “MBL inhibition, result in words” value in assay [1] was “inactive”.
On to `Cc1cccc(C)c1/C=C(\S)C(=O)O` [Compound 6q], for which the IC50 at SPM-1 was 0.02 µM; on NDM-1, 4.9 µM; in assay [1] (setting [2]) it was 0.02 µM; in assay [1] (upper end of the range, read-out: IC50 values to (highest across the MBL panel)), 4.9 µM; at VIM-2 it was 0.07 µM; at IMP-1, 0.02 µM. Further, at BcII, the half-inhibitory concentration (IC50) was 0.2 µM.
Regarding `O=C(O)/C(O)=C/c1ccc(F)cc1` [Compound 17], the remaining activity at 100 µM at SPM-1 (at 100 µM) came out at 93 ± 2%; on NDM-1 (at 100 µM) it was 97 ± 4%; at VIM-2 (at 100 µM) it was 100%; on IMP-1 (at 100 µM) it was 100%; on BcII (at 100 µM), 90 ± 3%. Further, the “MBL inhibition, result in words” value in assay [1] is “near inactive”.
As for `O=C(O)/C(S)=C/c1cc(Cl)ccc1Cl` [Compound 6o], the IC50 on SPM-1 was 0.8 µM; at NDM-1, 45.3 µM; in assay [1] (setting [2]), 0.8 µM; at VIM-2 it was 1.5 µM; on IMP-1 it was 4.7 µM; on BcII, 1.6 µM.
`O=C(O)/C(S)=C/c1ccccc1Br` [Compound 6h]: the half-inhibitory concentration (IC50) at SPM-1 was 3.5 µM; at NDM-1 it was 16.2 µM; on VIM-2, 2.7 µM; at IMP-1, 0.8 µM; on BcII, 5.8 µM.
Taken in the same sequence, the figures for `O=C(O)CN1C(=O)/C(=C/c2cc(Cl)ccc2Cl)SC1=S` [Compound 3o] were 16.6 ± 1 µM, more than 50 µM, more than 50 µM, more than 50 µM and more than 50 µM.
Taken in the same sequence, the figures for `COc1ccc(/C=C2\SC(=S)N(CC(=O)O)C2=O)cc1` [Compound 3e] were more than 50 µM, more than 50 µM, more than 50 µM, more than 50 µM and more than 50 µM.
On to `O=C(O)/C(S)=C/c1ccc(F)cc1` [Compound 6c], for which the IC50 on SPM-1 is 4.1 µM; at NDM-1, 5 µM; on VIM-2 it was 9.7 µM; on IMP-1, 2.7 µM; on BcII, 8.2 µM.
For `Cc1cccc(C)c1/C=C1\SC(=S)N(CC(=O)O)C1=O` [Compound 3q], in that order: more than 50 µM, more than 50 µM, 18.7 ± 1 µM, more than 50 µM and more than 50 µM.
Taken in the same sequence, the figures for `Cc1ccc(/C=C(\S)C(=O)O)cc1` [Compound 6b] were 0.3 µM, 3.7 µM, 0.4 µM, 0.2 µM and 0.7 µM.
As for `CN1CCN(NC(=O)CN2C(=O)/C(=C/c3ccccc3F)SC2=S)CC1` [Compound 5f], the IC50 was 42.7 µM at SPM-1; more than 50 µM on NDM-1; 6.2 µM at VIM-2; 22.6 µM on IMP-1; 26.3 µM on BcII.
`CC1=N/C(=C\c2ccc(F)cc2)C(=O)O1` [Compound 16]: the remaining activity at 100 µM was 87 ± 1% on SPM-1 (at 100 µM); 97 ± 2% at NDM-1 (at 100 µM); 100% at VIM-2 (at 100 µM); 100% on IMP-1 (at 100 µM); 92 ± 2% on BcII (at 100 µM). The “MBL inhibition, result in words” value in assay [1] is “near inactive”.
For `O=C(O)/C(S)=C/c1c(F)cccc1F` [Compound 6p], the IC50 was 0.06 µM on SPM-1; 21.5 µM at NDM-1; 0.06 µM in assay [1] (setting [2]); 0.2 µM at VIM-2; 0.2 µM at IMP-1; 0.1 µM at BcII.
`Cc1cccc(C)c1/C=C1\SC(=S)N(CC(=O)NN2CCN(C)CC2)C1=O` [Compound 5q]: the half-inhibitory concentration (IC50) was 0.2 µM at SPM-1; more than 50 µM at NDM-1; 29.4 µM at VIM-2; 2.7 µM at IMP-1; 27 µM on BcII.
Taken in the same sequence, the figures for `O=C(O)CN1C(=O)/C(=C/c2c(F)cccc2Cl)SC1=S` [Compound 3j] were 1.2 ± 0.3 µM, more than 50 µM, 9.8 ± 2.8 µM, 43.7 ± 0.5 µM and more than 50 µM.
Taken in the same sequence, the figures for `COc1ccc(/C=C2\SC(=S)N(CC(=O)NN3CCN(C)CC3)C2=O)cc1` [Compound 5e] were more than 50 µM, 48.9 µM, more than 50 µM, 31.5 µM and more than 50 µM.
For `CN1CCN(NC(=O)CN2C(=O)/C(=C/c3ccccc3I)SC2=S)CC1` [Compound 5i], the IC50 at SPM-1 was 8.8 µM; at NDM-1 it was more than 50 µM; on VIM-2 it was 37.6 µM; at IMP-1, 37.1 µM; at BcII, more than 50 µM.
Turning to `CN1CCN(NC(=O)CN2C(=O)/C(=C/c3c(F)cccc3Cl)SC2=S)CC1` [Compound 5j], the IC50 on SPM-1 is 0.1 µM; on NDM-1, more than 50 µM; on VIM-2 it was 0.8 µM; on IMP-1, 0.3 µM; on BcII, 2 µM.
With `Cc1ccc(/C=C2\SC(=S)N(CC(=O)O)C2=O)cc1` [Compound 3b], the IC50 is more than 50 µM on SPM-1; more than 50 µM at NDM-1; 32 ± 0.7 µM at VIM-2; more than 50 µM at IMP-1; more than 50 µM on BcII.
Consider `O=C(O)CN1C(=O)/C(=C/c2ccccc2Br)SC1=S` [Compound 3h], for which the IC50 is 36.6 ± 0.8 µM at SPM-1; more than 50 µM at NDM-1; more than 50 µM on VIM-2; 32.5 ± 1.3 µM at IMP-1; more than 50 µM on BcII.
